ΔTm and binding data for 6 molecules are collected here from article PMC8308870 (2021).

The test system of test [1] is T-Loop (t-Loop) (DNA, hairpin) TATAGCTATATTTTTTTATAGCTATA
Description: FRET melting. The note with it: 60 mM K+, potassium cacodylate, pH 7.4, 0.2 µM DNA.

The subject of test [2] is k-RAS (CD) (DNA, G4) AGGGCGGTGTGGGAAGAGGGA
Description: CD titration. The conditions noted are these: 50 mM K+, 50 mM LiCl; 20 mM lithium cacodylate, 20 °C; 10 µM DNA, 0–25 eq; ellipticity decrease, 295 nm band.

The subject of test [3] is h-Telo (CD) (DNA, G4) GGGTTAGGGTTAGGGTTAGGG
Description: CD titration. The note with it: 10 mM K+, 90 mM LiCl, 20 mM lithium cacodylate, 20 °C, 10 µM DNA, 0–25 eq.

Test [4] deals with k-RAS (CD) (DNA, G4) AGGGCGGTGTGGGAAGAGGGA
Description: CD melting (265 nm). The conditions noted are these: 50 mM K+, 50 mM LiCl; 20 mM lithium cacodylate, pH 7.2; 10 µM DNA; compound 5 eq.

The test system of test [5] is h-Telo (CD) (DNA, G4) GGGTTAGGGTTAGGGTTAGGG
Description: CD melting (290 nm). The conditions noted are these: 10 mM K+, 90 mM LiCl; 20 mM lithium cacodylate, pH 7.2; 10 µM DNA; compound 5 eq.

The subject of test [6] is c-MYC (Pu27) (DNA, G4) TGGGGAGGGTGGGGAGGGTGGGGAAGG
Description: CD melting (265 nm). The note with it: 100 mM LiCl, no K+ listed; 20 mM lithium cacodylate, pH 7.2; 10 µM DNA; compound 5 eq.

The subject of test [7] is k-RAS (FRET) (DNA, G4) AGGGCGGTGTGGGAAGAGGGA
Description: FRET melting. The conditions noted are these: 60 mM K+, pH 7.4, 0.2 µM DNA.

Test [8] has as its system Pu27mut (DNA, G4) TGGGGAGGGTGGAAAGGGTGGGGAAGG
Description: CD titration. The conditions noted are these: 10 mM K+, 2 mM Mg2+, 10 mM (NH4)2SO4; ThermoPol buffer (20 mM Tris-HCl, 0.1% Triton X-100), pH 8.8; parallel G4 induced.

In test [9] the test system is h-Telo (FRET) (DNA, G4) GGGTTAGGGTTAGGGTTAGGG
Description: FRET melting. The conditions noted are these: 60 mM K+, pH 7.4, 0.2 µM DNA.

Where [10] appears, read: cacodylate, compound 5 µM (25 eq).

`C[n+]1ccc2c(NC(=O)c3cccc(C(=O)Nc4cccc5c[n+](C)ccc45)n3)cccc2c1`: the ΔTm (in general, the change in melting temperature against a reference sample) in test [1] (compound 25 eq (5 µM)) was determined as 1.8 ± 0.2 °C; in [4], 12.2 ± 0.2 °C; in [5], 4.4 ± 0.2 °C; in test [6], 5.3 ± 0.1 °C. Besides, the binding result in [2] and in test [3] (topology maintained) was “yes” in each case.

For `O=C(Nc1cncc2ccccc12)c1cccc(C(=O)Nc2cncc3ccccc23)n1`, the shift in melting temperature (ΔTm) in [7] (setting [10]) is < 0.5 °C.

Take `C[n+]1ccc(NC(=O)c2cccc(C(=O)Nc3cc[n+](C)c4ccccc34)n2)c2ccccc21`: the binding result in [2] and in [3] (topology maintained) was “yes” throughout.

As for `C[n+]1cc(NC(=O)c2cccc(C(=O)Nc3cc4ccccc4[n+](C)c3)n2)cc2ccccc21`, the ΔTm is 35.6 ± 0.3 °C in test [7] (potassium cacodylate, compound 5 eq (1 µM)); 6.5 ± 0.1 °C in test [1] (compound 5 eq (1 µM)); > 40 °C in [4]; > 40 °C in test [6]. The binding result in test [3] (hybrid to parallel switch) and in test [8] was “yes” each time.

For `C[n+]1cc(NC(=O)c2cccc(C(=O)Nc3c[n+](C)cc4ccccc34)n2)c2ccccc2c1`, the ΔTm in [9] (potassium cacodylate, compound 25 eq (5 µM)) turned out to be 22.7 ± 0.2 °C; in [5] it was 14.9 ± 0.2 °C. Further, the binding result in test [2] and in test [3] (hybrid to antiparallel switch) was “yes” each time.

For `O=C(Nc1ccc2ccccc2n1)c1cccc(C(=O)Nc2ccc3ccccc3n2)n1`, in [9] (setting [10]), the ΔTm is < 0.5 °C.
